Common to all, as to assay type: functional
Experiment [1] has as its system A549. In words: Cytotoxicity against human A549 cells after 6 days by MTT assay. As to conditions: A549, 144 h, read-out: ED50 (the source's name). (In general: Tetrazolium assays rely on reduction of a dye to a coloured formazan, in cell work by metabolically active cells.)
Experiment [2] concerns P388. In words: Cytotoxicity against mouse P388 cells after 3 days by MTT assay. Particulars: P388, 72 h, read-out: ED50 (the source's name).
For experiment [3], the system named is KB. In words: Cytotoxicity against human KB cells after 3 days by MTT assay. Particulars: 72 h, read-out: ED50 (the source's name).
The test system of experiment [4] is HT-29. In words: Cytotoxicity against human HT-29 cells after 6 days by MTT assay. As to conditions: HT-29, 144 h, read-out: ED50 (the source's name).

Values after ≈ are worked out from the molar mass of the structure shown.

`C=C(CC[C@@H](C)[C@H]1CC[C@H]2[C@@H]3C(=O)C=C4C[C@@H](O)CC[C@]4(CO)[C@H]3CC[C@]12C)C(C)C`: the EC50 is 4.09 mg/L (≈ 9.54 µM) in experiment [1], 0.4 mg/L (≈ 0.933 µM) in experiment [2], > 50 mg/L in experiment [3] and 3.34 mg/L (≈ 7.79 µM) in experiment [4].

As to `C=C(CC[C@@H](C)[C@H]1CC[C@H]2[C@@H]3C[C@@H](O)[C@@]4(O)C[C@@H](O)CC[C@]4(CO)[C@H]3CC[C@]12C)C(C)C`, the EC50 in experiment [1] was determined as 0.81 mg/L (≈ 1.81 µM); in experiment [2], 0.34 mg/L (≈ 0.758 µM); in experiment [3], 0.39 mg/L (≈ 0.869 µM); in experiment [4] it was 0.93 mg/L (≈ 2.07 µM).

As for `C=C(CC[C@@H](C)[C@H]1CC[C@H]2[C@@H]3CC=C4C[C@@H](O)CC[C@]4(CO)[C@H]3CC[C@]12C)C(C)C`, the EC50 in experiment [1] was 1.76 mg/L (≈ 4.24 µM); in experiment [2] it was 0.45 mg/L (≈ 1.09 µM); in experiment [3], 1.1 mg/L (≈ 2.65 µM); in experiment [4], 1.31 mg/L (≈ 3.16 µM).

For `C=C(CC[C@@H](C)[C@H]1C[C@@H](O)[C@H]2[C@@H]3CC=C4C[C@@H](O)CC[C@]4(CO)[C@H]3CC[C@@]21C)C(C)C`, the EC50 in experiment [1] worked out at 0.41 mg/L (≈ 0.952 µM); in experiment [2], 0.07 mg/L (≈ 0.163 µM); in experiment [3], 0.6 mg/L (≈ 1.39 µM); in experiment [4], 0.17 mg/L (≈ 0.395 µM).

Take `C=C(CC[C@@H](C)[C@H]1CC[C@H]2[C@@H]3[C@@H](OC(C)=O)C=C4C[C@@H](O)CC[C@]4(CO)[C@H]3CC[C@]12C)C(C)C`: the EC50 worked out at 0.81 mg/L (≈ 1.71 µM) in experiment [1], 0.42 mg/L (≈ 0.888 µM) in experiment [2], 0.38 mg/L (≈ 0.804 µM) in experiment [3] and 0.87 mg/L (≈ 1.84 µM) in experiment [4].

For `C=C(CC[C@@H](C)[C@H]1CC[C@H]2[C@@H]3[C@@H](O)C=C4C[C@@H](O)CC[C@]4(CO)[C@H]3CC[C@]12C)C(C)C`, the EC50 in experiment [1] came out at 0.69 mg/L (≈ 1.6 µM); in experiment [2], 0.24 mg/L (≈ 0.557 µM); in experiment [3], 0.58 mg/L (≈ 1.35 µM); in experiment [4] it was 0.72 mg/L (≈ 1.67 µM).

The values above are taken from ChEMBL document CHEMBL1150933, “Cytotoxic sterols from the soft coral Nephthea erecta” (1998).
